Assay results taken from the supplement of paper PMC10307832.

Experiments:
Experiment in all cases: relative viability (nuclei count vs DMSO), 5 days (fraction); higher = more cells survive
KN-93 = compound: CN(C/C=C/C1=CC=C(C=C1)Cl)CC2=CC=CC=C2N(CCO)S(=O)(=O)C3=CC=C(C=C3)OC [KN-93]
Summary of the method: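 Viability is treated-well nuclei as a fraction of vehicle-well nuclei, reported as the median across plates. Before counting, lung cancer cell lines were kept overnight at 37 °C in 1536-well plates, pinned with five √10-spaced library-drug doses on vehicle-anchored plates, and left 5 days without medium change, then fixed, permeabilised and Hoechst-stained in one step, imaged at 4× and counted by MetaXpress. A plate passed only if control CV was below 25% and at least one doubling occurred.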

KN-93 + Navitoclax = compound: CN(C/C=C/C1=CC=C(C=C1)Cl)CC2=CC=CC=C2N(CCO)S(=O)(=O)C3=CC=C(C=C3)OC [KN-93] + CC1(C)CCC(c2ccc(Cl)cc2)=C(CN2CCN(c3ccc(C(=O)NS(=O)(=O)c4ccc(N[C@H](CCN5CCOCC5)CSc5ccccc5)c(S(=O)(=O)C(F)(F)F)c4)cc3)CC2)C1 [Navitoclax] (partner 0.5 µM)
Summary of the method: (§1)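 The day after seeding in 1536-well plates, lung cancer cell lines were treated by pin tool with a single drug, or with a fixed anchor-drug dose together with five library-drug doses (not always all listed) in √10 steps. After 5 days, a combined fix-and-stain solution (final 0.05% Triton X-100, 1% formaldehyde, 1 ug/ml Hoechst) was added. Nuclei counted on 4× images gave relative viability as treated counts over vehicle counts, reported as the median of duplicate plates.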

KN-93 + Lapatinib = compound: CN(C/C=C/C1=CC=C(C=C1)Cl)CC2=CC=CC=C2N(CCO)S(=O)(=O)C3=CC=C(C=C3)OC [KN-93] + CS(=O)(=O)CCNCc1ccc(-c2ccc3ncnc(Nc4ccc(OCc5cccc(F)c5)c(Cl)c4)c3c2)o1 [Lapatinib] (partner 2 µM)
Summary of the method: as §1

KN-93 + Dasatinib = compound: CN(C/C=C/C1=CC=C(C=C1)Cl)CC2=CC=CC=C2N(CCO)S(=O)(=O)C3=CC=C(C=C3)OC [KN-93] + Cc1nc(Nc2ncc(C(=O)Nc3c(C)cccc3Cl)s2)cc(N2CCN(CCO)CC2)n1 [Dasatinib] (partner 0.075 µM)
Summary of the method: as §1

KN-93 + Vorinostat = compound: CN(C/C=C/C1=CC=C(C=C1)Cl)CC2=CC=CC=C2N(CCO)S(=O)(=O)C3=CC=C(C=C3)OC [KN-93] + O=C(CCCCCCC(=O)Nc1ccccc1)NO [Vorinostat] (partner 1 µM)
Summary of the method: as §1

Cell Line	relative viability (KN-93; 0.08 µM)	relative viability (KN-93; 0.253 µM)	relative viability (KN-93; 2.53 µM)	relative viability (KN-93; 8 µM)	relative viability (KN-93 + Navitoclax; first compound 0.08 µM)	relative viability (KN-93 + Navitoclax; first compound 0.253 µM)	relative viability (KN-93 + Navitoclax; first compound 2.53 µM)	relative viability (KN-93 + Navitoclax; first compound 8 µM)	relative viability (KN-93 + Lapatinib; first compound 0.08 µM)	relative viability (KN-93 + Lapatinib; first compound 0.253 µM)	relative viability (KN-93 + Lapatinib; first compound 2.53 µM)	relative viability (KN-93 + Lapatinib; first compound 8 µM)	relative viability (KN-93 + Dasatinib; first compound 0.08 µM)	relative viability (KN-93 + Dasatinib; first compound 0.253 µM)	relative viability (KN-93 + Dasatinib; first compound 2.53 µM)	relative viability (KN-93 + Dasatinib; first compound 8 µM)	relative viability (KN-93 + Vorinostat; first compound 0.08 µM)	relative viability (KN-93 + Vorinostat; first compound 0.253 µM)	relative viability (KN-93 + Vorinostat; first compound 2.53 µM)	relative viability (KN-93 + Vorinostat; first compound 8 µM)
NCI-H647	0.985	1.25	1.01	0.813	0.976	1.41	1.39	0.715	0.836	1.07	1.26	0.819	0.161	0.216	0.253	0.164	0.532	0.853	0.601	0.323
HCC-15	0.862	1.03	1.08	0.893	0.539	0.718	0.794	0.579	0.625	1.01	1.02	0.685	0.59	0.535	0.581	0.447	0.773	0.877	0.932	0.738
HARA	0.871	0.943	0.827	0.565	0.983	1.22	1.02	0.687	0.693	0.737	0.811	0.625	0.246	0.283	0.248	0.104	0.394	0.475	0.503	0.493
COR-L 105	1.02	0.932	0.808	0.682	0.733	0.639	0.731	0.514	0.451	0.318	0.318	0.367	0.363	0.277	0.302	0.239	0.632	0.824	0.551	0.836
NCI-H1993	0.973	0.921	1.04	0.772	0.939	0.71	0.861	0.632	0.693	0.772	0.862	0.758	0.518	0.547	0.55	0.47	0.659	0.711	0.742	0.702
NCI-H1650	0.796	0.808	0.941	0.569	1.24	1.2	1.44	0.951	0.758	0.754	0.952	0.482	0.399	0.262	0.297	0.24	0.468	0.503	0.541	0.431
LC-2-ad	0.965	1.16	0.995	0.725	0.425	0.414	0.364	0.129	0.952	1.21	0.997	0.673	0.74	0.571	0.523	0.329	0.688	0.801	0.746	0.582
H3255	1.03	0.992	0.969	0.666	0.56	0.511	0.55	0.124	0.266	0.241	0.259	0.224	0.366	0.343	0.511	0.341	0.842	0.76	0.927	0.311
COR-L23	0.848	1.09	1.08	0.665	0.877	1.02	1.37	0.626	0.846	1.47	0.901	0.508	0.505	0.45	0.595	0.354	0.448	0.46	0.509	0.402
HCC-78	0.941	0.828	1.04	0.744	0.699	0.833	0.778	0.375	0.881	0.703	1.02	0.21	0.336	0.459	0.373	0.344	0.465	0.405	0.739	0.381
HCC-827	1.08	1.05	1.05	0.851	1.04	0.986	0.98	0.872	0.218	0.204	0.197	0.194	0.279	0.302	0.233	0.275	0.929	0.874	0.793	0.777
NCI-H2087	0.788	1.13	1.12	0.533	0.931	0.948	0.982	0.527	1.06	1.22	1.02	0.286	0.793	1.38	0.882	0.622	0.707	0.963	0.861	0.54
NCI-H3122	0.972	1.02	1.07	0.931	1.11	1.1	1.1	0.846	1.09	1.01	1.12	0.978	0.716	0.824	1.12	0.661	0.595	1.12	1.08	0.66
SK-LU-1	0.8	1.26	1.16	0.759	0.748	0.849	1.3	0.538	0.644	1.15	0.972	0.56	0.192	0.179	0.188	0.17	0.626	0.865	0.781	0.473
NCI-H2170	0.761	1.03	1.01	0.676	0.537	0.606	0.542	0.563	0.271	0.257	0.274	0.249	0.501	0.55	0.718	0.266	0.717	0.907	0.932	0.522
NCI-H1755	0.915	1.03	1.03	0.758	0.844	1.03	1.07	0.815	1.02	1.26	1.04	0.561	0.392	0.407	0.384	0.255	0.844	0.835	0.856	0.511
NCI-H2126	0.96	0.887	1.08	0.902	0.814	0.785	0.929	0.809	0.806	0.659	0.804	0.702	0.565	0.468	0.578	0.364	0.782	0.83	0.727	0.704
NCI-H1666	0.969	0.921	0.995	0.875	0.863	0.799	0.982	0.863	0.747	0.638	0.679	0.532	0.842	0.924	0.889	0.645	1.07	1.1	1.04	1.06
NCI-H1395	0.965	0.969	0.914	0.571	1.11	1.22	1.34	0.566	1.63	1.11	1.04	0.679	0.428	0.402	0.708	0.31	0.844	0.721	0.559	0.432
NCI-H23	0.997	1.18	1.02	0.56	0.721	0.988	0.933	0.816	1.05	1.1	1.31	0.883	0.64	0.84	0.818	0.439	0.596	0.626	0.543	0.258
SW 1573	0.862	1.13	1.02	0.514	0.97	1.12	1.13	0.598	1.31	1.11	1.14	0.919	0.551	0.492	0.474	0.236	0.685	0.916	0.746	0.569
NCI-H1944	0.885	0.885	0.942	0.803	1.09	1.01	1.04	0.896	0.84	0.793	0.96	0.771	0.235	0.22	0.213	0.154	0.502	0.627	0.522	0.249
LCLC-97TM1	0.975	1.29	1.09	0.601	0.287		0.527	0.238	1.06		1.12	0.425	0.753	0.955	0.814	0.63	0.629	0.723	0.637	0.437
HOP-62	1.06	1.07	1.17	0.733	1.01	0.897	1.38	0.904	0.94	1.23	0.985	1	0.52	0.669	0.675	0.501	0.557	0.824	0.748	0.487
LXF-289	0.942	1.07	1.02	0.828	0.97	1.08	0.918	0.631	0.845	0.934	1	0.737	0.238	0.197	0.229	0.141	0.661	0.839	0.716	0.546
NCI-H1915	0.952	1.24	0.993	0.947	0.736	0.813	0.823	0.742	0.963	1.25	1.01	0.908	0.354	0.343	0.305	0.225	0.496	0.607	0.608	0.491
NCI-H727	1.03	0.833	1.02	0.649	0.464	0.4	0.285	0.17	0.776	0.762	0.802	0.486	0.44	0.399	0.415	0.237	1.05		1.3	1.01
UMC-11	0.903	1.14	1.14	0.374		0.345	0.312	0.22	0.839	1.12	1.32	0.626	0.407	0.502	0.785	0.38	0.364	0.35	0.359	0.267
NCI-H838	0.935	0.883	1.02	0.908	1.04	1.06	1.31	0.946	0.903	0.78	1.12	0.746	0.32	0.236	0.334	0.239	0.738	0.62	0.663	0.592
NCI-H1437	1.03	1.09	0.895	0.584	0.92	1.23	1.07	0.476	0.632	0.963	0.875	0.425	0.457	0.44	0.374	0.153	0.608	0.854	0.529	0.324
